# Source: patent publication US20130072517A1 (Avanir Pharmaceuticals, Inc., priority 2002, published 2013)
# Columns and labels:
# [1] = Clinical Study #2: plasma pharmacokinetics of dextromethorphan, dextrorphan and quinidine, single and multiple dose; conditions: for AUC(0-t) / Cmax / half-life / Tmax: human, in vivo, mean, 30 mg DM HBr/25 mg Q sulfate capsule every 12 hours; for AUC(0-t): AUC (0-12) (plasma); for Cmax: Cmax (plasma); for half-life: T ½ el (plasma); for Tmax: Tmax (plasma)
# Protocol: Descriptive statistics for each parameter, including mean, median, standard deviation, coefficient of variation, N, minimum, and maximum were calculated for all of the subjects by Day. In addition, descriptive statistics were presented by the subgroups: extensive metabolizer (EM) and poor metabolizer (PM).
# The ANOVA model included the factors group (EM or PM), subject within group, day, and the interaction term day by group. The group effect was tested using the subject within group mean square, and all other main effects were tested using the residual error (error mean square). In addition, tests of the hypotheses Day 1=Day 4, Day 1=Day 8, and Day 4=Day 8 were performed.
# [2] = Clinical Study #1: adverse events in dextromethorphan phenotyping and quinidine dose determination study; conditions: single oral dose 30 mg capsule; headache, mild
# Protocol: A phenotyping study directed to dextromethorphan was conducted. The study was an open-label single dose study. Subjects were screened to ensure they met the inclusion and exclusion criteria. Subjects received a single oral dose of dextromethorphan hydrobromide 30 mg capsule taken with 240 mL of tap water. A total of fifty-eight subjects were screened and fifty subjects dosed. The study determined each subject's ability to metabolize dextromethorphan. Subjects who met the inclusion/exclusion criteria remained in house for dosing. Each subject was administered one 30 mg capsule (P.M.) of dextromethorphan. Urine was collected predose through 12 hours postdose and analyzed for dextromethorphan and dextrorphan.
# The study was an open-label, randomized, multiple dose study. Subjects identified as extensive metabolizers received an evening dose on Day 1, at 12-hour intervals for the next six days, with a final morning dose on Day 8. All subjects were instructed to dose themselves at home on eight occasions with medication dispensed to them. Subjects maintained a diary during the study to record adverse effects. […]
# A total of eight blood samples (40 mL) were drawn during the study (including the dextromethorphan screen) for drug analysis. […] At the end of the interval, the total volume was recorded and two aliquots were frozen at −20° C. until assayed for dextromethorphan and dextrorphan.
# [3] = Clinical Study #5: concentrations in plasma of DM, DX and Q and correlation with pain intensity; assay type: in vivo, human; conditions: final visit; for Concentration in plasma, Mean / Concentration in plasma, Median: extensive metabolizers
# Protocol: Subjects visited the clinic every two weeks during the four-week duration of the study and were contacted by telephone during weeks without clinic visits. At each subsequent study visit or weekly phone call, the subjects were given the Pain Intensity Rating Scale and the Pain Relief Rating Scale and were queried regarding any adverse events that might have occurred since their previous visit. Subjects were administered the Peripheral Neuropathy Quality of Life (QOL) Instrument on Days 1 and 29 (or the final visit). Blood samples were taken at the visits on Day 15 and Day 29 to determine concentrations in plasma of DM, DX, and Q.
# [4] = assay type: in vivo
# Source text: An adverse event was any unfavorable and unintended sign (including an abnormal laboratory finding, for example), symptom, or disease temporally associated with the use of a medicinal product, whether or not considered related to the medicinal product. Changes associated with normal growth and development not varying in frequency or magnitude from that ordinarily anticipated clinically are not adverse events (for example, onset of menstruation occurring at a physiologically appropriate time). Clinical adverse events were described by diagnosis and not by symptoms when possible (for example, cold or seasonal allergies, instead of “runny nose”).
# The severity of adverse events was graded on a 3-point scale and reported in detail as indicated on the Case Report Form: mild—easily tolerated, causing minimal discomfort, and not interfering with normal everyday activities; moderate—sufficiently discomforting to interfere with normal everyday activities; and severe—incapacitating and/or preventing normal everyday activities.
# Subjects were instructed to promptly report any adverse event. The serious adverse event was assessed for the following details: seriousness of event, start date, stop date, intensity, frequency, relationship to test drug, action taken regarding test drug, treatment required, and outcome to date. These details were recorded on the Case Report Form. Such preliminary reports were followed by detailed descriptions that included copies of hospital case reports, autopsy reports, and other documents when requested and applicable.
# Blood and urine were collected at the screening visit and Day 29 for clinical chemistry, hematology, urinalysis, and pregnancy testing. In the event of an abnormal laboratory test value, the test was repeated within one week, and the subject was followed up until the value returned to the normal range and/or until an adequate explanation of the abnormality was found.
# (§1) Values were obtained for systolic and diastolic blood pressure, heart rate, and respiration rate on the screening visit and all other study visits. All values outside the pre-defined ranges were flagged in the subject data listings. Electrocardiography (twelve lead) was used to obtain ventricular rate (VR), QT, Q-Tc intervals, […] (PR), and QRS duration. A blood sample (10 mL whole blood) was taken from each subject at the Screening Visit for CYP2D6 genotyping to determine which subjects were poor metabolizers of DM and which were extensive metabolizers. Blood samples were taken on Day 29 for the determination of concentrations of DM, DX, and Q in plasma. The relationship between the concentration of drug in plasma and changes in CNS-LS scores was determined, and the effect of the CYP2D6 genotype on this relationship was evaluated.
# [5] = Clinical Study #4: concentrations of DM, DX and Q in plasma on Day 29; assay type: in vivo, human; conditions: blood collection within 8 hours of last dose
# Protocol: as §1
# Q in this combination product inhibits the rapid first-pass metabolism of DM.
smiles,measurement,setting,value
"COc1ccc2c(c1)[C@]13CCCCC1[C@H](C2)N(C)CC3 (single isomer, unassigned; (+)) [Dextromethorphan, (+)-3-methoxy-N-methylmorphinan]",AUC(0-t),"[1]; Day 1, All Subjects",148 ng·h/mL
same,AUC(0-t),"[1]; Day 1, EM",133 ng·h/mL
same,AUC(0-t),"[1]; Day 1, PM",198 ng·h/mL
same,AUC(0-t),"[1]; Day 4, All Subjects",886 ng·h/mL
same,AUC(0-t),"[1]; Day 4, EM",812 ng·h/mL
same,AUC(0-t),"[1]; Day 4, PM",1150 ng·h/mL
same,AUC(0-t),"[1]; Day 8, All Subjects",1160 ng·h/mL
same,AUC(0-t),"[1]; Day 8, EM",1050 ng·h/mL
same,AUC(0-t),"[1]; Day 8, PM",1530 ng·h/mL
same,Cmax,"[1]; Day 1, All Subjects",17.3 ng/mL
same,Cmax,"[1]; Day 1, EM",15.9 ng/mL
same,Cmax,"[1]; Day 1, PM",22.3 ng/mL
same,Cmax,"[1]; Day 4, All Subjects",83.1 ng/mL
same,Cmax,"[1]; Day 4, EM",76.7 ng/mL
same,Cmax,"[1]; Day 4, PM",106 ng/mL
same,Cmax,"[1]; Day 8, All Subjects",105 ng/mL
same,Cmax,"[1]; Day 8, EM",95.5 ng/mL
same,Cmax,"[1]; Day 8, PM",136 ng/mL
same,half-life,"[1]; Day 8, All Subjects",20.3 h
same,half-life,"[1]; Day 8, EM",13.1 h
same,half-life,"[1]; Day 8, PM",42 h
same,Tmax,"[1]; Day 1, All Subjects",7.11 h
same,Tmax,"[1]; Day 1, EM",6.85 h
same,Tmax,"[1]; Day 1, PM",8 h
same,Tmax,"[1]; Day 4, All Subjects",5.55 h
same,Tmax,"[1]; Day 4, EM",5.42 h
same,Tmax,"[1]; Day 4, PM",6 h
same,Tmax,"[1]; Day 8, All Subjects",5.77 h
same,Tmax,"[1]; Day 8, EM",5.99 h
same,Tmax,"[1]; Day 8, PM",4.99 h
same,Fold increase in AUC (0-12) from Day 1 to Day 8,[1]; poor metabolizers,6.1 fold
same,Adverse effects reported during the phenotyping study,[2],One
same,"Concentration in plasma, Mean",[3]; DM/Q MTD 30 mg,59.0 ng/mL
same,"Concentration in plasma, Median",[3]; DM/Q MTD 30 mg,67.4 ng/mL
same,"Concentration in plasma, Mean",[3]; DM/Q MTD 60 mg,46.2 ng/mL
same,"Concentration in plasma, Median",[3]; DM/Q MTD 60 mg,1.5 ng/mL
same,"Concentration in plasma, Mean",[3]; DM/Q MTD 90 mg,117.0 ng/mL
same,"Concentration in plasma, Median",[3]; DM/Q MTD 90 mg,117.0 ng/mL
same,"Concentration in plasma, Mean",[3]; DM/Q MTD 120 mg,192.6 ng/mL
same,"Concentration in plasma, Median",[3]; DM/Q MTD 120 mg,178.0 ng/mL
same,"Concentration in plasma, Mean","[3]; Total, all MTDs",153.7 ng/mL
same,"Concentration in plasma, Median","[3]; Total, all MTDs",144.5 ng/mL
same,Concentration in plasma,[3]; poor metabolizer (MTD of 60 mg),126.4 ng/mL
same,Subjects with dizziness,"[4]; 28 days, twice daily",15.2%
same,Subjects with loose stools,"[4]; 28 days, twice daily",Three
same,Subjects with nausea,"[4]; 28 days, twice daily",6.1%
same,Subjects with somnolence,"[4]; 28 days, twice daily",3.0%
same,Subjects who withdrew because of adverse events,"[4]; human, in vivo, 29 days",6.1%
same,"CPK, change Baseline to Day 29",[4]; relative to the 30DM/30Q group,significant increase in CPK
same,"concentration of DM in plasma, Max",[5],15.81
same,"concentration of DM in plasma, Mean",[5],5.18
same,"concentration of DM in plasma, Median",[5],4.55
same,"concentration of DM in plasma, Min",[5],0.35
